Here are results for twelve compounds from PubChem BioAssay (NCI).

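All cell lines were grown in 96-well plates and treated with compound for 48 hours. Abbreviation: GI50, concentration required for 50% inhibition of growth. TGI: total growth inhibition.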

Test systems include 786-0 renal; A498 renal; ACHN renal; BT-549 breast; CAKI-1 renal; HOP-92 NSCLC; MDA-MB-435; MOLT-4 leukemia; NCI-H522 lung; NCI/ADR-RES ovarian; SF-295 CNS.
Assay in all cases: DTP human tumour cell line panel, 48 h

Take `CCn1c(SCc2nnc(Nc3ccccc3)s2)nc2ccccc2c1=O`: the TGI in the assay with 786-0 renal is 3.97 µM; in the assay on A498 renal, 3.92 µM; with ACHN renal, 9.16 µM; in the assay on BT-549 breast it was 26.7 µM; with CAKI-1 renal, 9.04 µM; in the assay on HOP-92 NSCLC it was 9.11 µM. The TGI in the assay on MDA-MB-435 is over 100 µM; in the assay on MOLT-4 leukemia, over 100 µM; in the assay with NCI-H522 lung it was 7.63 µM; in the assay on NCI/ADR-RES ovarian, 10.9 µM; with SF-295 CNS, 6.87 µM.

As for `COc1ccc(-c2cc(-c3ccc(OC)c(OC)c3)nc(SCCCC(=O)NO)n2)cc1`, the GI50 in the assay on A498 renal is 1.39 µM; in the assay with ACHN renal, 0.456 µM; in the assay on BT-549 breast it was 3.8 µM; with CAKI-1 renal, 0.431 µM; in the assay on HOP-92 NSCLC, 1.5 µM; in the assay with MDA-MB-435, 1.27 µM. The GI50 is 0.787 µM with NCI-H522 lung, 0.977 µM in the assay with NCI/ADR-RES ovarian and 1.74 µM in the assay on SF-295 CNS. Moreover, the TGI in the assay on A498 renal is 3.06 µM; in the assay on ACHN renal it was 2.29 µM; with BT-549 breast it was over 100 µM; with CAKI-1 renal, 2.37 µM; in the assay with HOP-92 NSCLC it was 5.63 µM; with MDA-MB-435, 4.15 µM. Further, the TGI in the assay with NCI-H522 lung worked out at 5.09 µM; with NCI/ADR-RES ovarian it was 4.77 µM; in the assay on SF-295 CNS, 3.77 µM.

As to `CCCC(CC)c1cc(O)c(O)cc1C(CC)CCC` (configuration not stated), the TGI with 786-0 renal, in the assay on A498 renal, with ACHN renal, in the assay with BT-549 breast, with CAKI-1 renal and in the assay on HOP-92 NSCLC was over 10 µM each time. Besides, the total growth inhibition concentration (TGI) in the assay on MDA-MB-435, with MOLT-4 leukemia, in the assay on NCI-H522 lung, in the assay on NCI/ADR-RES ovarian and with SF-295 CNS was over 10 µM in each case.

In the case of `CCOC(=O)COC1=Nc2cc(OC)c(OC)c3nc(Cl)cc(c23)C1=O`, the total growth inhibition concentration (TGI) stood at 3.04 µM in the assay on 786-0 renal; 23.5 µM in the assay with A498 renal; 3.02 µM with ACHN renal; 3.45 µM with BT-549 breast; 3.58 µM with CAKI-1 renal; 3.22 µM in the assay with HOP-92 NSCLC. Further, the TGI was 2.93 µM with MDA-MB-435; 5.91 µM in the assay on MOLT-4 leukemia; 3.25 µM in the assay with NCI-H522 lung; over 31.4 µM in the assay with NCI/ADR-RES ovarian; 24 µM with SF-295 CNS.

In the case of `c1cc2c3c(c1)[C@@H]1O[C@@H]1c1cccc(c1-3)[C@@H]1O[C@H]21`, the concentration for total growth inhibition (TGI) was 75 µM in the assay on 786-0 renal; over 100 µM with A498 renal; 43 µM with ACHN renal; 98.5 µM in the assay on BT-549 breast; 32.7 µM in the assay with CAKI-1 renal; 50.2 µM in the assay with HOP-92 NSCLC. Also, the TGI in the assay with MDA-MB-435 was 32.5 µM; with MOLT-4 leukemia it was over 100 µM; in the assay on NCI-H522 lung, 30.1 µM; in the assay on NCI/ADR-RES ovarian, 61.6 µM; in the assay with SF-295 CNS, over 100 µM.

With `O=c1cnc2cc3ccccc3cc2[nH]1`, the TGI in the assay with 786-0 renal, in the assay on A498 renal, with ACHN renal, with BT-549 breast, in the assay on CAKI-1 renal and with HOP-92 NSCLC was over 100 µM throughout. Moreover, the TGI in the assay on MDA-MB-435, in the assay with MOLT-4 leukemia, in the assay with NCI-H522 lung, in the assay with NCI/ADR-RES ovarian and in the assay with SF-295 CNS was over 100 µM each time.

Turning to `O=C1/C(=C/c2cccs2)N=C(c2ccccc2)N1c1nc2ccccc2s1`, the total growth inhibition concentration (TGI) with 786-0 renal, with A498 renal, in the assay on ACHN renal, with BT-549 breast, in the assay on CAKI-1 renal and with HOP-92 NSCLC was over 100 µM each time. Also, the TGI was over 100 µM with MDA-MB-435; over 100 µM in the assay on MOLT-4 leukemia; 17.3 µM in the assay with NCI-H522 lung; over 100 µM in the assay with NCI/ADR-RES ovarian; over 100 µM in the assay on SF-295 CNS.

Take `COC(CC1(CCNc2ccccc2)C(=O)N(COCC[Si](C)(C)C)c2ccccc21)OC` (configuration not stated): the TGI is 25.4 µM in the assay on 786-0 renal; 47.5 µM in the assay with A498 renal; 37.1 µM in the assay on ACHN renal; 32.5 µM in the assay with BT-549 breast; over 62.2 µM with CAKI-1 renal; 42.2 µM in the assay on HOP-92 NSCLC. Further, the TGI was 38.5 µM with MDA-MB-435; over 100 µM in the assay with MOLT-4 leukemia; 24.2 µM in the assay with NCI-H522 lung; 39.6 µM in the assay with NCI/ADR-RES ovarian; 32 µM in the assay with SF-295 CNS.

Regarding `CC(=O)NCC1OC2COC(c3ccccc3)OC2C2N=C(c3ccccc3)OC12` (configuration not stated), the TGI in the assay on 786-0 renal, with A498 renal, in the assay on ACHN renal, in the assay with BT-549 breast, with CAKI-1 renal and in the assay on HOP-92 NSCLC was over 100 µM in each case. The TGI with MDA-MB-435, in the assay with MOLT-4 leukemia, with NCI/ADR-RES ovarian and in the assay on SF-295 CNS was over 100 µM in each case.

As to `O=C1Sc2cc3ccccc3cc2C(=O)Sc2cc3ccccc3cc21`, the total growth inhibition concentration (TGI) in the assay with 786-0 renal was 59 µM; in the assay on A498 renal, over 100 µM; in the assay on ACHN renal, over 63.6 µM; in the assay with BT-549 breast, over 100 µM; with CAKI-1 renal, over 90.1 µM; in the assay with HOP-92 NSCLC it was over 87.6 µM. The TGI with MDA-MB-435 is over 100 µM; in the assay with MOLT-4 leukemia it was 76.8 µM; with NCI-H522 lung, 41.5 µM; in the assay on NCI/ADR-RES ovarian it was over 92.3 µM; with SF-295 CNS, over 100 µM.

Turning to `Cc1cn([C@@H]2C[C@](C)(CO)N(C)O2)c(=O)[nH]c1=O`, the concentration for total growth inhibition (TGI) with 786-0 renal, in the assay with A498 renal, in the assay with ACHN renal, in the assay with BT-549 breast, in the assay on CAKI-1 renal and in the assay with HOP-92 NSCLC was over 100 µM each time. Also, the TGI with MDA-MB-435, with NCI-H522 lung, in the assay on NCI/ADR-RES ovarian and in the assay with SF-295 CNS was over 100 µM throughout.

For `COc1cccc(OC/C(N=Cc2ccncc2)=N/NC(=O)c2ccncc2)c1`, the TGI with 786-0 renal, in the assay with A498 renal, in the assay with ACHN renal, with BT-549 breast, in the assay with CAKI-1 renal and in the assay on HOP-92 NSCLC was over 100 µM in each case. Besides, the concentration for total growth inhibition (TGI) in the assay on MDA-MB-435, with MOLT-4 leukemia, in the assay with NCI-H522 lung, in the assay on NCI/ADR-RES ovarian and in the assay with SF-295 CNS was over 100 µM each time.
